Reference: publication PMC3050527 (Bioorganic & medicinal chemistry, 2010)
Entries after “also recorded” stand apart in the source; their conditions may differ.

Experiments:
Assay type in all cases: biochemical
cPLA2 = target: T1, cPLA2 (Homo sapiens, UniProt P47712); assay: inhibition of cPLA2; conditions: at 1µµ
T1 sequence (P47712 1-749): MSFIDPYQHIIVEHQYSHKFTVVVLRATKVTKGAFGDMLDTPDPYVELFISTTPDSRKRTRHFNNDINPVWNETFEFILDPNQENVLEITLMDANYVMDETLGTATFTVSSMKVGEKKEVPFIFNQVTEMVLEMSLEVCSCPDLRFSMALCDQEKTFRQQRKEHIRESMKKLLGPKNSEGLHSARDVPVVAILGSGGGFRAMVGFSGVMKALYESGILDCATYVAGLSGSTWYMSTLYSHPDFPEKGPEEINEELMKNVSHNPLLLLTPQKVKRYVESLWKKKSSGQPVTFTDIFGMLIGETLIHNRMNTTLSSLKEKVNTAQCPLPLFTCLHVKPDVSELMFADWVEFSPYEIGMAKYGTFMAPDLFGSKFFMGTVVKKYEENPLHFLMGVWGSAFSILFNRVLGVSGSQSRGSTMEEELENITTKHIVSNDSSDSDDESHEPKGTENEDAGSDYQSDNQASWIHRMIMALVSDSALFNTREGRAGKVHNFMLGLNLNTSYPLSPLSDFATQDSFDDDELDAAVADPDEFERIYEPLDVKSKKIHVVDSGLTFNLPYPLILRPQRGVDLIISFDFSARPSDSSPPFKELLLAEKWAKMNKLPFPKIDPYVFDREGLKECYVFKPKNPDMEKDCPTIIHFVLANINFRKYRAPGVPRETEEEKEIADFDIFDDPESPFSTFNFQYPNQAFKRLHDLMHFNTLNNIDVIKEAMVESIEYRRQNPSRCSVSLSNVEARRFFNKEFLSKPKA

hGX sPLA2 = target: T2, hGX sPLA2 (Homo sapiens, UniProt O15496); assay: continuous fluorimetric sPLA2 assay, human GX
T2 sequence (O15496 43-165): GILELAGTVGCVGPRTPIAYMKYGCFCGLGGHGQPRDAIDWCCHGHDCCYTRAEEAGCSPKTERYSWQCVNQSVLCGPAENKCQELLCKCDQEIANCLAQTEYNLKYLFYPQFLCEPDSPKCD

hGIIA sPLA2 = target: T3, hGIIA sPLA2 (Homo sapiens, UniProt P14555); assay: continuous fluorimetric sPLA2 assay, human GIIA; conditions: compared with GK126
T3 sequence (P14555 21-144): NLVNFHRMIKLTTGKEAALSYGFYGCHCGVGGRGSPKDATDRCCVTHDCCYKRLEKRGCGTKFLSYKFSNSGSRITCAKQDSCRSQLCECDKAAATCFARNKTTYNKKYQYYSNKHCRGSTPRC

Row | inhibition against cPLA2 (cPLA2) [%] | sPLA2 inhibitory activity (in words) (hGIIA sPLA2) | SMILES | inhibition of human GX sPLA2 (in words) (hGX sPLA2)
1 | ≤ 12 |  | CCCCCCCCCCCCCCC(=O)C(=O)N[C@@H](CC(C)C)C(=O)O [GK126, (S)-4-Methyl-2-(2-oxohexadecanamido)pentanoic acid] | did not show any inhibition; also recorded: did not display any measurable inhibition
2 |  | inactive | CCCCCCCCCCCCCCC(=O)C(=O)N[C@@H](Cc1ccccc1)C(=O)O [GK141, (S)-2-(2-Oxohexadecanamido)-3-phenylpropanoic acid] | 
3 |  | inactive | CCCCCCCCCCCCCCCC(=O)N[C@@H](CC(C)C)C(=O)O [GK144, (S)-4-Methyl-2-palmitamidopentanoic acid] | 
